Entries after “also recorded” stand apart in the source; their conditions may differ.
What was measured:
Format in all cases: in vivo, human
[1] = test system: subjects with fibromyalgia; test: Multidimensional Inventory of Subject Cognitive Impairment (MISCI); settings: not statistically significant
From the text: As used herein, “MISCI” is Multidimensional Inventory of Subject Cognitive Impairment. The MISCI is a 10-item assessment that measures cognitive function. The instrument examines 5 cognitive domains: mental clarity, memory, language, executive functioning, and attention/concentration. The first 6 items are positively worded and reflect perceived cognitive abilities and the last 4 items are negatively worded and reflect perceived cognitive difficulties. The same scoring metric is used for both response scales. However, the scores on items 7-10 must be reverse-coded prior to summing the responses to generate the total score due to the negative wording of these items. Here is a list of the categorical responses with the numeric values that make up the total score: • Positively Worded Items 1-6:“Not at All”=1; “A Little Bit”=2; “Somewhat”=3; “Quite a Bit”=4; “Very Much”=5 • Negatively Worded Items 7-10: “Never”=5; “Rarely”=4; “Sometimes”=3; “Often”=2; “Very Often”=1
The total score was calculated by the sum of all the 10 items ranging from 10 to 50, with higher scores indicating better perceived cognitive functioning (i.e. lower impairment). […] The MISCI assessment was collected and analyzed at visits Screening, Day 1, Week 2, Week 4, Week 6, and Follow-up (Week 7). […] Additionally, the treatment group comparisons were analyzed using the paired ttest and nonparametric Wilcoxon signed-rank test.

[2] = test system: subjects with fibromyalgia; test: Revised Fibromyalgia Impact Questionnaire (FIQR)
From the text: As used herein, “FIQR” is Revised Fibromyalgia Impact Questionnaire. The FIQR is an updated version of the Fibromyalgia Impact Questionnaire which is an assessment of the physical functioning, work status, depression, anxiety, morning tiredness, pain, stiffness, fatigue and wellbeing in fibromyalgia subjects measured over the period of 1 week. The FIQR differs from the FIQ in that it includes questions on memory, tenderness, balance, and environmental sensitivity as well as modified function questions. All 21 FIQR questions are based on an 11-point numerical rating scale/Likert scale ranging from 0 to 10. Lower scores represent a better quality of life. The FIQR is made of the 3 following domains: • Function Domain Score • 9 Questions with Scores Ranging from 0 (No Difficulty) to 10 (Very Difficult) • Sum of those 9 Questions make up the Function Domain Score Ranging from 0 to 90 • Missing Data Imputation Factor: If at least 5 questions were answered, the Function Domain Score was multiplied by 9/(number of questions answered) and rounded off to the nearest whole number. Otherwise, the score was set to missing. • Overall Impact Domain Score • 2 Questions with Scores Ranging from 0 (Never) to 10 (Always) • Sum of those 2 Questions make up the Overall Impact Domain Score Ranging from 0 to 20 • Missing Data Imputation Factor: If 1 question was missing, the Overall Impact Domain Score was multiplied by 2. Otherwise, the score was set to missing. • Symptoms Domain Score • 10 Questions with Scores Ranging from 0 to 10 with Different Categorical Reponses Sum of those 10 Questions make up the Symptoms Domain Score Ranging from 0 to 100 Missing Data Imputation Factor: If at least 5 questions were answered, the Function Domain Score was multiplied by 10/(number of questions answered) and rounded off to the nearest whole number. Otherwise, the score was set to missing.
If all 3 domain scores could be calculated, the Total FIQR Score ranged from 0 to 100 and was calculated based on the normalization domain scores: (Function Domain Score/3)+Overall Impact Domain Score+(Symptoms Domain Score/2). Otherwise, the Total FIQR Score was set to missing. The Function and Symptoms domain scores collected on the CRF applied the normalization factors stated above (Function Domain Score/3 and Symptoms Domain Score/2) in order to calculate the Total FIQR Score on the CRF. As a result, the Function and Symptoms domain scores were derived by the definition stated above in the SAP as opposed to using the collected values on the CRF. The FIQR assessment was collected and analyzed at visits Screening, Day 1, Week 2, Week 4, Week 6, and Follow-up (Week 7). The observed total and domain scores, changes from baseline, and changes from treatment periods were summarized using descriptive statistics. Additionally, the treatment group comparisons were analyzed using the paired ttest and nonparametric Wilcoxon signed-rank test. All FIQR data collected and the calculated total and domain scores at each visit were presented in a subject listing.

[3] = test system: dorsal anterior cingulate cortex Glx; test: 1H-MRS Glx levels, dorsal anterior cingulate cortex
From the text: As used herein, “^1H-MRS” is Magnetic Resonance Spectroscopy (1H-MRS) or Proton Magnetic Resonance Spectroscopy. Proton magnetic resonance spectroscopy is a noninvasive imaging technique that allows in vivo determination of biochemical parameters within brain tissue. Proton magnetic resonance spectroscopy data were used to collect brain neurotransmitter levels of Glu and combined glutamate+glutamine metabolites (Glx). This method provides metrics amenable to longitudinal studies such as those proposed here. High-resolution anatomical scans can isolate identical brain structures within individuals over time, thus minimizing error that otherwise would occur because of slight differences in voxel location from 1 evaluation to the next. Previous ^1H-MRS studies have utilized this approach to examine changes in the levels of CNS metabolites in test-retest studies of drug effects. […]
Raw data from each single-voxel spectroscopy sequence underwent manual post-processing using ^1H-MRS software (LCModel; Stephen Provencher, Oakville, Ontario, Canada). […] Glx values were calculated as an absolute concentration using the water signal for normalization or as a ratio to creatine. […]
The analysis visit comparisons stated were analyzed using paired t-tests and/or nonparametric Wilcoxon signed-rank tests of Glx levels at each voxel independently in SPSS. […]

[4] = Week 2 (placebo) to Week 4 (NYX-2925 20 mg)
[5] = Week 2 (placebo) to Week 6 (NYX-2925 200 mg)

## CC(C)C(=O)N1CCC[C@]12CN([C@H](C(N)=O)[C@@H](C)O)C2=O [NYX-2925, (2S, 3R)-3-hydroxy-2-((R)-5-isobutyryl-1-oxo-2,5-diazaspiro[3.4]octan-2-yl)butanamide]
[1]; [4]
  MISCI Total score, mean change: 1.1
[1]; [5]
  MISCI Total score, mean change: 0.9
[2]; NYX-2925 20 mg
  total FIQR score, change from baseline: reductions from baseline
[2]; [4]
  FIQR Symptoms Domain score, mean change: −2.1
  FIQR Total score, mean change: −0.5
[2]; [5]
  FIQR Function Domain score, mean change: −3.7
  FIQR Overall Impact Domain score, mean change: −2.0
[2]; Week 2 (placebo) to Week 6 (NYX-2925 200 mg), p=0.0135
  FIQR Total score, mean change: −6.3
[2]; Week 2 (placebo) to Week 6 (NYX-2925 200 mg), p=0.0207
  FIQR Symptoms Domain score, mean change: −6.2
[2]; week six, after four weeks of NYX-2925, scale 0 to 100, n=21
  Total FIQR score, reduction from baseline: 9.6 point
[3]; NYX-2925 20 mg vs placebo, p<0.05
  dACC resting Glx (concentrations and ratios to creatine): statistically significant reductions of Glx levels; also recorded: decreased resting Glx
[3]; NYX-2925 200 mg vs placebo
  dACC mean Glx levels: No significant decrease; also recorded: No effect
